One experiment addresses T1, DNMT1 (Homo sapiens, UniProt P26358).
T1 construct: purchased DiscoverX BROMOscan (bromodomains); SGC in-house methyltransferase panel
As to the kind of experiment: Methyl transferase scintillation proximity assay. In kind it is biochemical. The conditions noted are these: average of two measurements; for inhibition at 10 µM: read-out: MTases Inhibition (%). Summed up: (§1)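 ^3H-SAM + biotinylated substrate, both ~apparent Km per enzyme. Quench: 7.5 M guanidine HCl; dilute in 20 mM Tris pH 8.0; FlashPlate capture 1 h; read CPM. No-compound = 100%, no-enzyme = 0% activity.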
On the technique in general: Scintillation proximity formats need no separation of bound from free tracer.

In a further experiment the target is T2, PRC2-EZH1 (Homo sapiens, UniProt Q92800).
T2 construct: purchased DiscoverX BROMOscan (bromodomains); SGC in-house methyltransferase panel
T2 sequence (Q92800 whole entry): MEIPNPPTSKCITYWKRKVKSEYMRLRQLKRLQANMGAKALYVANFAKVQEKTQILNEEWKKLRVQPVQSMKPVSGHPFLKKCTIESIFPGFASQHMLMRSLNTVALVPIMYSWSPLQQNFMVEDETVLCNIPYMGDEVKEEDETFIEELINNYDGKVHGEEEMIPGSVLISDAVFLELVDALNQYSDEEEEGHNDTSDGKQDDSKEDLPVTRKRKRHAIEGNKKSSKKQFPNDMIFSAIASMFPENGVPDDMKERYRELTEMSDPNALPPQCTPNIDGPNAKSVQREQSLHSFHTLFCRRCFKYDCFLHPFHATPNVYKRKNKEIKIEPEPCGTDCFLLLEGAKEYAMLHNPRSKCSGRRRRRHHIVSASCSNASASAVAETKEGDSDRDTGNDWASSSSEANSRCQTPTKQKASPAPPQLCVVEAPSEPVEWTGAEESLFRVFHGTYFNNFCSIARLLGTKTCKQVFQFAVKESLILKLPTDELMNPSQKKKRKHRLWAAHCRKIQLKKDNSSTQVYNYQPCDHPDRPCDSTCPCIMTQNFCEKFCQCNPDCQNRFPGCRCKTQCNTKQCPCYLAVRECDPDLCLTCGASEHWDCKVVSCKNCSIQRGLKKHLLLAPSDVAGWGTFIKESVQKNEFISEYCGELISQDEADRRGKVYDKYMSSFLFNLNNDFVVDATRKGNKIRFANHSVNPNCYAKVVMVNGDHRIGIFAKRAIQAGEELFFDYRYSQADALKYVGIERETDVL
T2 sequence (O75530 whole entry partner): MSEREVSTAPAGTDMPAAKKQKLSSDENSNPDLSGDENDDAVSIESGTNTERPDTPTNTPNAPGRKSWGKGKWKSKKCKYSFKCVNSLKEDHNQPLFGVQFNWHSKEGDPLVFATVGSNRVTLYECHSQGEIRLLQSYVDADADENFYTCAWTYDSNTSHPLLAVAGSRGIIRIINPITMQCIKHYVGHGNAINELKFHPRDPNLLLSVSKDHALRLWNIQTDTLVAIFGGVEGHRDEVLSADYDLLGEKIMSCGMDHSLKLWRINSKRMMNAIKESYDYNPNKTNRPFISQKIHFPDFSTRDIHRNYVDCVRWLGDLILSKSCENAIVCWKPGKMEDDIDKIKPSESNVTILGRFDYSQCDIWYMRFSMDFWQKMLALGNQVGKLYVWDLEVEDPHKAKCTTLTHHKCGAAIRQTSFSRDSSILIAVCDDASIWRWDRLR
T2 sequence (Q15022 whole entry partner): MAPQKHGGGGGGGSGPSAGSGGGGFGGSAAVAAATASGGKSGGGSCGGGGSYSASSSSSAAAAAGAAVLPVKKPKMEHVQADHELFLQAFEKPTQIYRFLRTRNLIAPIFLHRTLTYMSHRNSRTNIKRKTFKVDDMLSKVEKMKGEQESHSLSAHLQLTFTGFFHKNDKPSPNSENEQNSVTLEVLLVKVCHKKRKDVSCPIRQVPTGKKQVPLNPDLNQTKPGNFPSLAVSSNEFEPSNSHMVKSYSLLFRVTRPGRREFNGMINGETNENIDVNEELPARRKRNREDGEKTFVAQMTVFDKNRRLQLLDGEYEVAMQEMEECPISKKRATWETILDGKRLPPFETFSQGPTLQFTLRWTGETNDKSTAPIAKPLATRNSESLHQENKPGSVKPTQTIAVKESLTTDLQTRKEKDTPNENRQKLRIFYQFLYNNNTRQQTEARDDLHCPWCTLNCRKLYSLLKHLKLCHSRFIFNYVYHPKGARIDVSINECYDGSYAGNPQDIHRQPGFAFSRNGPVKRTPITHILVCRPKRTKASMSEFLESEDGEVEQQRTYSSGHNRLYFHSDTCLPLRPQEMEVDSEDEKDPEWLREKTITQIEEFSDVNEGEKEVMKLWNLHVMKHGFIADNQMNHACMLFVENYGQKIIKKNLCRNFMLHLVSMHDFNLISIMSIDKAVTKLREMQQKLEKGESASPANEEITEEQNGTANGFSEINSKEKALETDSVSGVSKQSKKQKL
As to the kind of experiment: Methyl transferase scintillation proximity assay. In kind it is biochemical. The following applies: average of two measurements; for inhibition at 10 µM: read-out: MTases Inhibition (%). Summed up:
as §1

In another experiment the target is T3, SETD8 (Homo sapiens, UniProt Q9NQR1).
T3 construct: purchased DiscoverX BROMOscan (bromodomains); SGC in-house methyltransferase panel
T3 sequence (Q9NQR1 1-393): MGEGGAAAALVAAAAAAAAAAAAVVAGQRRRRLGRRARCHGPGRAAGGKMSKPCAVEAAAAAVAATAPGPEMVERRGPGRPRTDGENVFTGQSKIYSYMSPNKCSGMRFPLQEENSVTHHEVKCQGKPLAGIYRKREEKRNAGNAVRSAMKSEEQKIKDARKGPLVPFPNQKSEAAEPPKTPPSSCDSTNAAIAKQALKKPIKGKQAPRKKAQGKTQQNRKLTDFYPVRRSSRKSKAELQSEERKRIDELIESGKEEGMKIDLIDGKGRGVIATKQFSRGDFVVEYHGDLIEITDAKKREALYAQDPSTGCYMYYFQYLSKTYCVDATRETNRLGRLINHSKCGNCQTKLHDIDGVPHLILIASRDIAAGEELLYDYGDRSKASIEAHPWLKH
As to the kind of experiment: Methyl transferase scintillation proximity assay. The conditions noted are these: average of two measurements; for inhibition at 10 µM: read-out: MTases Inhibition (%). In kind it is biochemical. A digest of the protocol: as §1

A further experiment has as its target T4, SUV420H2 (Homo sapiens, UniProt Q86Y97).
T4 construct: purchased DiscoverX BROMOscan (bromodomains); SGC in-house methyltransferase panel
Nature of the experiment: Methyl transferase scintillation proximity assay. In kind it is biochemical. The conditions noted are these: average of two measurements; for inhibition at 10 µM: read-out: MTases Inhibition (%). A digest of the protocol:
as §1

For another experiment, the target named is T5, G9A (Homo sapiens, UniProt Q96KQ7).
T5 construct: purchased DiscoverX BROMOscan (bromodomains); SGC in-house methyltransferase panel
T5 sequence (Q96KQ7 1-1210): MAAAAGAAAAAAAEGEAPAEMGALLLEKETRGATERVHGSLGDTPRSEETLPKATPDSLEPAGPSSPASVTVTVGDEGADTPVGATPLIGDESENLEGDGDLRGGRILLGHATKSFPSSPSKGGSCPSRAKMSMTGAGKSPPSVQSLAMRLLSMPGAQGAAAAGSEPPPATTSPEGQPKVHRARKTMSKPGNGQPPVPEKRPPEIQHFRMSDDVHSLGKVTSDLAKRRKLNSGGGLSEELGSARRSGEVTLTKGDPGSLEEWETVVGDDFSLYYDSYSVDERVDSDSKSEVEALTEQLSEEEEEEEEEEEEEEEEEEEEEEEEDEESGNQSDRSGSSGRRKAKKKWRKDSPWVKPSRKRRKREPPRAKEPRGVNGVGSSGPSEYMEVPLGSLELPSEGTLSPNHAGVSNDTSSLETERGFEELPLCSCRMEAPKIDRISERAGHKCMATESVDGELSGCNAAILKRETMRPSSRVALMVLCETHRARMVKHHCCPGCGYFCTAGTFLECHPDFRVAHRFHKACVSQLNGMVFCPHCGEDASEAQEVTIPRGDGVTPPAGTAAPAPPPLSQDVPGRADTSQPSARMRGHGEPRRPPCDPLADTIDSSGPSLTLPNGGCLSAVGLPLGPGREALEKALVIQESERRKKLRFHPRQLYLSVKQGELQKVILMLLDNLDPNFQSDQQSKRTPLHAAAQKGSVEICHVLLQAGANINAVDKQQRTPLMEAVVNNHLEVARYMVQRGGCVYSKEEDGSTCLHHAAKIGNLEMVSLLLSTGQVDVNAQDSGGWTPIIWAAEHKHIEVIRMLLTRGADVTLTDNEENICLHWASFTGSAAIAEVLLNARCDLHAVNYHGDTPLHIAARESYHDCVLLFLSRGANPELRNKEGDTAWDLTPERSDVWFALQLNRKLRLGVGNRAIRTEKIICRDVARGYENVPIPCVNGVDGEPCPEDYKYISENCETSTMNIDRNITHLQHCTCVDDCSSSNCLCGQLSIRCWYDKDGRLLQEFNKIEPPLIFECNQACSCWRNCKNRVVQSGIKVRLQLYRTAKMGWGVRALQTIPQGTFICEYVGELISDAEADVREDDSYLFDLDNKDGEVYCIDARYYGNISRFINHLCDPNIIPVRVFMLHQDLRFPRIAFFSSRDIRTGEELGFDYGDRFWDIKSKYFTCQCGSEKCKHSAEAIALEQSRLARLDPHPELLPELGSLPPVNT
As to the kind of experiment: Methyl transferase scintillation proximity assay. In kind it is biochemical. The conditions noted are these: average of two measurements; for inhibition at 10 µM: read-out: MTases Inhibition (%). A digest of the protocol:
as §1

Another experiment addresses T6, SMYD3 (Homo sapiens, UniProt Q9H7B4).
T6 construct: purchased DiscoverX BROMOscan (bromodomains); SGC in-house methyltransferase panel
T6 sequence (Q9H7B4 1-428): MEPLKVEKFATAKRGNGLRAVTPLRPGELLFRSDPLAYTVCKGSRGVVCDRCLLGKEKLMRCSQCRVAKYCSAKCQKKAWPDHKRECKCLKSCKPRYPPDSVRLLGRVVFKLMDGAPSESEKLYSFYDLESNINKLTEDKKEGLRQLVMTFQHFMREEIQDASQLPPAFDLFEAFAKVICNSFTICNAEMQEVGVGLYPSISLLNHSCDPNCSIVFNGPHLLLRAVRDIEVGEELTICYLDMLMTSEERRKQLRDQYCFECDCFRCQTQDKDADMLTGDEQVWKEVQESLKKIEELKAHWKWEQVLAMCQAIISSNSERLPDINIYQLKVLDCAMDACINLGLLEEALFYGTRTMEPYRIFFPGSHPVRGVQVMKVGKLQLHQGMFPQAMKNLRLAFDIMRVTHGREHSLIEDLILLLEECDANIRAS
Nature of the experiment: Methyl transferase scintillation proximity assay. The following applies: average of two measurements; for inhibition at 10 µM: read-out: MTases Inhibition (%). In kind it is biochemical. A digest of the protocol:
as §1

For a further experiment, the target named is T7, SUV39H2 (Homo sapiens, UniProt Q9H5I1).
T7 construct: purchased DiscoverX BROMOscan (bromodomains); SGC in-house methyltransferase panel
T7 sequence (Q9H5I1 whole entry): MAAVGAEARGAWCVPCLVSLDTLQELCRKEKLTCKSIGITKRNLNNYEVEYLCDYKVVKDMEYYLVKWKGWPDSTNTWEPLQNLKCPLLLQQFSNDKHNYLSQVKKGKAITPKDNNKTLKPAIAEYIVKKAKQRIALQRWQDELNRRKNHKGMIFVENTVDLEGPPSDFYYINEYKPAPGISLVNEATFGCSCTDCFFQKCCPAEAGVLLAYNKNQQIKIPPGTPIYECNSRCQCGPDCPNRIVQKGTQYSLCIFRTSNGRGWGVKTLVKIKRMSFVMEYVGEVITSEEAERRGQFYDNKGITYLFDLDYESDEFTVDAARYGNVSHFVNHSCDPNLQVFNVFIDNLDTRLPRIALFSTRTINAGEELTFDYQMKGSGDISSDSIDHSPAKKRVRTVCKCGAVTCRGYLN
Nature of the experiment: Methyl transferase scintillation proximity assay. In kind it is biochemical. The following applies: average of two measurements; for inhibition at 10 µM: read-out: MTases Inhibition (%). Summed up:
as §1

A further experiment deals with BRD3(2) (Homo sapiens, UniProt Q15059). Nature of the experiment: BROMOscan ligand-binding assay.
BRD3(2), sequence (Q15059 306-415 limits assumed): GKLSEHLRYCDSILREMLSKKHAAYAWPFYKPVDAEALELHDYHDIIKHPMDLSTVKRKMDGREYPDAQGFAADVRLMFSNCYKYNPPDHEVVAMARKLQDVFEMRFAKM
For another experiment, the target named is SMARCA4 (Homo sapiens, UniProt P51532). Nature of the experiment: BROMOscan ligand-binding assay.
SMARCA4, sequence (P51532 1453-1564 limits assumed): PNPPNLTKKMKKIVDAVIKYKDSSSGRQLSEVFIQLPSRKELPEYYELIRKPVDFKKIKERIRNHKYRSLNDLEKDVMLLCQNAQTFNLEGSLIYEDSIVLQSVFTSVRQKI
Setting [1] is: KD, BROMOscan Gene Symbol BRD3(2).
Setting [2] is: KD (BROMOscan), sheet prints no unit (nM).

Read-outs that look alike come from different tables or passages of the source.

T4 sequence (Q86Y97 whole entry): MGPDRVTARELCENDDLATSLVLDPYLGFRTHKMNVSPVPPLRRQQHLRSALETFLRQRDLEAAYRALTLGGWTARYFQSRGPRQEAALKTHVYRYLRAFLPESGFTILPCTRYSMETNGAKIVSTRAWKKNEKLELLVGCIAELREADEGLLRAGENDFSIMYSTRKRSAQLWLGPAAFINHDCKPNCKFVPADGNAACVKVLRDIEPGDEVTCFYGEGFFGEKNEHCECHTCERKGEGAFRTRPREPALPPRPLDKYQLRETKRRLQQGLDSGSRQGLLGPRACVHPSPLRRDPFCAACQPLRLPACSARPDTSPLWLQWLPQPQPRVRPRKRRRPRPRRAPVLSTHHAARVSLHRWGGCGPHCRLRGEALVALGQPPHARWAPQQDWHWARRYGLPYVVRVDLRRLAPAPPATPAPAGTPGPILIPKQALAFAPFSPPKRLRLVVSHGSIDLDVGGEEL
T1 sequence (P26358 whole entry): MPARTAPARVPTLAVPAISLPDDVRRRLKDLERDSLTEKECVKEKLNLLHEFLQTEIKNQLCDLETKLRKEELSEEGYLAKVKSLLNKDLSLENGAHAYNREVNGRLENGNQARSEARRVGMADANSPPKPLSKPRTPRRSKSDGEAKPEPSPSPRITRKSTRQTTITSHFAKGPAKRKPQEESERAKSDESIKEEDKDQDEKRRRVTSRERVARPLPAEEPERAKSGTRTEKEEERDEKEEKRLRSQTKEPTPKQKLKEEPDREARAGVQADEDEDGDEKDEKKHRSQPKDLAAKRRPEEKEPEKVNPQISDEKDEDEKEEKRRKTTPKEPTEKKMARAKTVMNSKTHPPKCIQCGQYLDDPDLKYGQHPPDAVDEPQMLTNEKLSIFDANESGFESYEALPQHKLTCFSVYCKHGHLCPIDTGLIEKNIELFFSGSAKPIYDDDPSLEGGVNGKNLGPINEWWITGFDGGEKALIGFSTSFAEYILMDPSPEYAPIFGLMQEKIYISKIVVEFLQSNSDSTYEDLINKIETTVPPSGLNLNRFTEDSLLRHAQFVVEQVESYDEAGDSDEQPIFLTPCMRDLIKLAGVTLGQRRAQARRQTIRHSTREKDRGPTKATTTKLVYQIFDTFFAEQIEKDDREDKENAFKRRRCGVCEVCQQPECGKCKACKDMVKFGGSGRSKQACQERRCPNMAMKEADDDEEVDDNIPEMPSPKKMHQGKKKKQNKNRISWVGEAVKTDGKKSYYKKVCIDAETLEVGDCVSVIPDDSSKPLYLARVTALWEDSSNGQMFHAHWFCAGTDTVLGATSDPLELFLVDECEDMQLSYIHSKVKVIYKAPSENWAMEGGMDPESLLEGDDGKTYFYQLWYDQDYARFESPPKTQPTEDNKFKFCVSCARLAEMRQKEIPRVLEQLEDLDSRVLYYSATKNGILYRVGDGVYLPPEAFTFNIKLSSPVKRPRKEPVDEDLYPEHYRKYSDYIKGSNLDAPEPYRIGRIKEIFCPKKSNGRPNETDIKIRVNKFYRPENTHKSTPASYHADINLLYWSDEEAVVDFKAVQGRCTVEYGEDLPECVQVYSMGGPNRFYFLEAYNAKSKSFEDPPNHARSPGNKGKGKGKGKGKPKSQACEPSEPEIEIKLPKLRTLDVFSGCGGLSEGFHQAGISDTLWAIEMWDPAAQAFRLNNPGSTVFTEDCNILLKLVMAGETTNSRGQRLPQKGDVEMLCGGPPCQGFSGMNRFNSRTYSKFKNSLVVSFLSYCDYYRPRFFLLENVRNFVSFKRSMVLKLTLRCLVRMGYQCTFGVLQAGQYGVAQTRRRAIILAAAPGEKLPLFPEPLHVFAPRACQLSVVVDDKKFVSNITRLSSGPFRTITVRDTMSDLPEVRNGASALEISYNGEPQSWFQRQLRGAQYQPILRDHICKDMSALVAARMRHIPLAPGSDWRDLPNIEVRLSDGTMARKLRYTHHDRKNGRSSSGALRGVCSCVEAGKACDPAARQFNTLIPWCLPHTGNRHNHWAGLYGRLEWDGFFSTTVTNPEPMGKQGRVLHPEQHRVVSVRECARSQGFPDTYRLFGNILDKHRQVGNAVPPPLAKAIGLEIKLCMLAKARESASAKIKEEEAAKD
Description for BRD3(2): (§2) BROMOscan is a binding assay based on the well-known KINOMEscan technology. This assay measures the binding of a DNA-tagged bromodomain to an immobilized BRD ligand. If an inhibitor is present, it will compete with the bromodomain binding to the immobilized ligand, resulting in reduction of a quantitative PCR (qPCR) signal in a dose-dependent manner.
Description for SMARCA4: as §2

For the compound `Cc1c(NC(=O)c2cc(C(N)=O)nc3cc(F)ccc23)c(C(F)(F)F)nn1Cc1ccc(C(C)(C)C)cc1` [BAY-588], the inhibition at 10 µM was 9% on DNMT1; 3% on PRC2-EZH1; -3% at SETD8; -3% at SUV420H2; 3% on G9A; 7% at SMYD3. Moreover, the inhibition at 10 µM at SUV39H2 worked out at 12%.

Regarding `COc1cc(Cl)c(C(=O)N[C@@H](CN[C@H]2CC[C@@H](N)CC2)Cc2ccc(C#N)cc2)cc1-c1ccc(CN[C@H](C)c2ccc(C)cc2)o1` [BAY-850], the inhibition at 10 µM at DNMT1 is 4%; at PRC2-EZH1, 19%; at SETD8 it was 2%; on SUV420H2, 0%; at G9A, 7%; on SMYD3, 6%. Besides, on SUV39H2, the inhibition at 10 µM was -2%.

As to `Cc1c(NC(=O)c2cc(C(N)=O)nc3cc(F)ccc23)c(C(F)(F)F)nn1Cc1ccc(C#N)cc1` [BAY-876], the inhibition at 10 µM was 4% at DNMT1; -4% on PRC2-EZH1; 0% at SETD8; -1% on SUV420H2; -3% at G9A; 3% at SMYD3. Moreover, on SUV39H2, the inhibition at 10 µM is -2%.

In the case of `Cc1noc(C)c1-c1ccc2c(c1)nc(CCc1ccccc1)n2CCN1CCOCC1` [CBP30-298], at BRD3(2) (BROMOscan Gene Symbol BRD3(2)), the affinity, expressed as Kd, was 1600 nM.

As for `CCCOc1ccn2c(C(C)=O)cc(-c3ccccc3S(C)(=O)=O)c2c1` [GSK2801], the Kd at BRD3(2) (setting [1]) is 13000 nM; on SMARCA4 (setting [2]), above 30000 nM; at SMARCA4 (KD, BROMOscan Gene Symbol SMARCA4), above 100000 nM.

Take `CN1C[C@H](Nc2cnn(C)c(=O)c2Br)C[C@H](c2ccccc2)C1` [GSK4027]: the inhibition at 10 µM at DNMT1 is 3%; on PRC2-EZH1 it was -1%; on SETD8, 10%; on SUV420H2, -1%; on G9A it was 1%; at SMYD3, 1%. The inhibition at 10 µM on SUV39H2 came to 5%.

As to `COc1ccccc1C(=O)Nc1cc2c(cc1N1CCNC[C@H]1C)n(C)c(=O)n2C` [GSK6853], the “MTases Inhibition (%)” value is -8% on DNMT1 (10µM); 1% on PRC2-EZH1 (10µM); -6% at SETD8 (10µM); -2% at SUV420H2 (10µM); -2% on G9A (10µM); 9% at SMYD3 (10µM). Moreover, at SUV39H2 (10µM), the “MTases Inhibition (%)” value stood at 1%.

On to `CO[C@H]1CNC[C@@H](OCC2CCC(F)(F)CC2)[C@@H]1Nc1ncc(-c2cncc(C)c2)c2cc(C)c(=O)[nH]c12` [GSK8814], for which the inhibition at 10 µM at DNMT1 was -3%; at PRC2-EZH1 it was 1%; at SETD8 it was -7%; at SUV420H2, 0%; on G9A, -2%; on SMYD3 it was 8%. The inhibition at 10 µM at SUV39H2 amounted to 3%.

Take `CCC(=O)N1CCOc2c(cc(-c3ccc(OC)c(OC)c3)cc2OCC2CCCN(C)C2)C1` (stereo not shown) [I-CBP112]: the Kd at BRD3(2) (setting [1]) is 20000 nM; at SMARCA4 (setting [2]), above 30000 nM; at SMARCA4 (KD, SMARCA4), above 100000 nM.

On to `Cc1nnc2c3ccccc3c(N[C@@H](C)[C@H](c3ccccc3)N(C)C)nn12` [L-Moses], for which the inhibition at 10 µM on DNMT1 is 3%; on PRC2-EZH1, 5%; on SETD8 it was -8%; at SUV420H2, 6%; on G9A it was -3%; at SMYD3 it was 10%. In addition, the inhibition at 10 µM on SUV39H2 was 5%.

With `Cc1cc(=O)n(C)c2cc(N3C(=O)CC[C@H](NS(=O)(=O)CC(C)C)[C@H]3c3ccc(Cl)cc3)ccc12` [LP-99], the Kd on BRD3(2) (BROMOscan, BRD3(2)) is above 50000 nM; on SMARCA4 (BROMOscan, SMARCA4), above 50000 nM.

`COc1cc(C#N)ccc1S(=O)(=O)Nc1ccc2c(c1)cc(C)c(=O)n2C` [NI 57]: the Kd on BRD3(2) (BRD3(2)) is above 50000 nM; at SMARCA4 (SMARCA4) it was 41000 nM.

On to `CCCS(=O)(=O)c1nc(NC2CC2)cc(-c2ccc3c(ccn3C3CC(C)(C)NC(C)(C)C3)c2)n1` [NVS-CECR2-1], for which, on BRD3(2), the Kd was above 30000 nM.

In the case of `COc1cc2c(cc1NS(=O)(=O)c1ccc(Br)cc1C)n(C)c(=O)n2C` [OF-1], the dissociation constant (Kd) on BRD3(2) (BRD3(2)) and on SMARCA4 (SMARCA4) was 16000 nM each time.

Turning to `O=C(C=CN1[C@H]2CC[C@@H]1c1ncnc(NC3CC3)c1C2)c1ccccc1O` [PFI-3 D1], the Kd at BRD3(2) (BROMOscan, BRD3(2)) was above 30000 nM; at SMARCA4 (BROMOscan, SMARCA4), 46 nM.

Consider `O=C(C=CN1CC2CC1CN2c1ccccn1)c1ccccc1O` (stereo not shown) [PFI-3], for which the Kd is above 30000 nM at BRD3(2) (setting [2]) and above 100000 nM at BRD3(2) (KD, BRD3(2)).

Compound `COc1ccc(CCc2nc3cc(-c4c(C)noc4C)ccc3n2C[C@H](C)N2CCOCC2)cc1Cl` [SGC-CBP30] gave a Kd on BRD3(2) (KD, BROMOscan, BRD3(2)) of 2300 nM.

On SMARCA4 (KD, SMARCA4), `O=C(O)c1ccccc1O` [Salicylic Acid] had a Kd of 320000 nM.

Consider `CN(C)CCCOc1ccc(-c2cc(NCCCn3cccn3)nc(S(C)(=O)=O)n2)cc1` [TP-238], for which the inhibition at 10 µM is 3% at DNMT1; 6% on PRC2-EZH1; -6% at SETD8; 0% on SUV420H2; 7% at G9A; 7% on SMYD3. Besides, at SUV39H2, the inhibition at 10 µM was 7%.

The term inhibition denotes the relative decrease from the control value, in per cent. By Kd is commonly meant the equilibrium constant for the complex coming apart. A lower Kd goes with a tighter complex.

The values are drawn from article PMC6478789, “A chemical toolbox for the study of bromodomains and epigenetic signaling” (Nature Communications, 2019).
